Among the data in the METLIN SMRT retention time set (Domingo-Almenara et al. 2019) are RP-LC retention time values, retold here.

A short description of the data set: gradient 5% acetonitrile 3 min, to 50% in 2 min, to 85% in 15 min, held 3 min, 100 µL/min. The settings on record: column: Zorbax Extend-C18 2.1 x 50 mm; eluents: water / acetonitrile, 0.1% formic acid. The method in brief: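 Pure standards were analyzed in mixtures of ~100 molecules using HPLC coupled to a quadrupole time-of-flight mass spectrometer, in both positive and negative ionization mode. Separation used a Zorbax Extend-C18 column (2.1 × 50 mm, 1.8 μm) at 100 μL/min, with water and acetonitrile each containing 0.1% formic acid. Dead and dwell volumes were 40 μL and 900 μL, and data were collected over 3 months. Retention time was read from computationally picked adduct peaks, each inspected manually.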
As for `O=C(COc1ccc(F)cc1)N1C[C@@H]2C[C@H]1C[C@@H]2NS(=O)(=O)c1ccccc1`, the RP-LC retention time worked out at 793 s.

With `O=C(O)c1cc(-c2ccncc2)nc2ccccc12`, the RP-LC retention time was 572 s.

In the case of `COc1ccc(CCn2ccc3nc(N4CCN(C)CC4)ncc3c2=O)cc1OC`, the RP-LC retention time is 605 s.

`CC1CCCC(C)N1C(=O)CSc1nnc(-c2ccc3c(c2)OCCCO3)n1C` (centres undefined) yielded an RP-LC retention time of 780 s.

Compound `CN(C)S(=O)(=O)c1ccc(NC(=O)N2CCCC(C(=O)Nc3ccc(F)cc3)C2)s1` (centres undefined) returned an RP-LC retention time of 830 s.

In turn, `CN1C(=O)c2cccnc2Sc2cc(NC(=O)c3ccccc3Cl)ccc21` came in with an RP-LC retention time of 781 s.

Consider `CCCn1cc(CCNC(=O)Nc2ccc(Br)c(C)c2)c2cccnc21`, for which the RP-LC retention time was found to be 902 s.

Consider `CC(C)NC(=O)N1CCN(Cc2nc3cccnc3n2-c2cccc(F)c2)CC1`, for which the RP-LC retention time worked out at 609 s.

Consider `Cc1cc(C(=O)Nc2c3c(nn2-c2ccccc2)CCC3)nn1C`, for which the RP-LC retention time came to 733 s.

The compound `CC(=O)Nc1ccc(NC(=O)C2CCCN(C(=O)c3cc(-c4ccncc4)n[nH]3)C2)cc1` (centres undefined) displayed an RP-LC retention time of 566 s.

Compound `Cn1ccc2c(cc(C(=O)NCCC3=CCCCC3)n2C)c1=O` returned an RP-LC retention time of 766 s.

The compound `COCC(=O)NC1CCC12CCN(S(=O)(=O)c1cn(C)cn1)CC2` (centres undefined) came in with an RP-LC retention time of 623 s.

For the compound `O=C(N1c2ccccc2CC1c1nnc(C2CCOCC2)o1)C1(c2ccccc2)CC1` (centres undefined), the RP-LC retention time turned out to be 841 s.

The compound `Cn1cccc1Cc1nnc(SCC(=O)N2CCCc3ccccc32)n1C` registered an RP-LC retention time of 767 s.

As for `Cc1cc2c(=O)n(CC(=O)Nc3ccc(Cl)cc3F)ccc2s1`, the RP-LC retention time was 871 s.

With `CCN(C1CCOCC1)C1CN(S(=O)(=O)c2cccc(F)c2)C1`, the RP-LC retention time was determined as 597 s.

Take `CN(CC1CCOCC1)C(=O)NCc1cccc(F)c1`: the RP-LC retention time came out at 684 s.

`O=C(CN1CC=C(c2cnn(-c3ccc(F)cc3)c2)CC1)NCC1CCCO1` (centres undefined) displayed an RP-LC retention time of 628 s.

Consider `CNC(=O)c1cc2c(C)nn(-c3cccc(F)c3)c2s1`, for which the RP-LC retention time is 865 s.

Regarding `COC(=O)c1ncn2c1C(=O)N(Cc1ccc(Cl)cc1)C(C)(C(=O)NC1CCCCC1)C2` (centres undefined), the RP-LC retention time came out at 798 s.

Regarding `O=C(NC1CC1)c1ccc(OCC2CCCN(C(=O)c3c(F)cccc3F)C2)cc1` (centres undefined), the RP-LC retention time is 820 s.

In turn, `CCn1c(=O)c(C)nc2cc(-c3noc(-c4cc(OC)c(OC)c(OC)c4)n3)ccc21` yielded an RP-LC retention time of 919 s.

In turn, `CCCN1CCN(C(=O)CC(C)S(=O)(=O)c2ccc3c(c2)CCN3C(C)=O)CC1` (centres undefined) displayed an RP-LC retention time of 586 s.

In the case of `COc1ccc(CN2N=C(C(=O)N3CCOCC3)S(=O)(=O)c3ccccc32)cc1F`, the RP-LC retention time is 807 s.

Consider `CN(C)c1ccc(C(=O)N2CCC(COc3ccc(C(=O)N4CCCCC4)cc3)CC2)cc1`, for which the RP-LC retention time stood at 929 s.

The compound `Cc1cc(C)cc(N2C(=O)CN(S(=O)(=O)c3ccccc3)CC2(C)C(=O)NC2CCCC2)c1` (centres undefined) yielded an RP-LC retention time of 968 s.

In the case of `C/C(O)=C(\C#N)C(=O)Nc1ccc(C(F)(F)F)cc1`, the RP-LC retention time is 858 s.

In turn, `COc1ccccc1OCC(=O)NCCN1CCN(c2ccccc2OC)CC1` had an RP-LC retention time of 574 s.

Take `Cn1c(C(=O)N2CCN(c3ccccn3)CC2)cc2c(-c3cccs3)nn(-c3ccccc3)c21`: the RP-LC retention time stood at 749 s.

The compound `Cc1ccc(CNC(=O)C2CCN(c3cn[nH]c(=O)c3)C2)o1` (centres undefined) registered an RP-LC retention time of 626 s.

In turn, `CN1C(=O)c2cc(S(=O)(=O)Nc3ccc(Cl)cc3F)ccc2Oc2cccnc21` yielded an RP-LC retention time of 962 s.

Take `COc1cc(C)c2c(c1C=O)Oc1c(c(C)c(O)c3c1C(O)OC3=O)OC2=O` (centres undefined): the RP-LC retention time was 840 s.

In turn, `CCN(C(=O)CN1C(=O)NC2(CCC(C)CC2)C1=O)c1cccc(C)c1` (centres undefined) came in with an RP-LC retention time of 666 s.

With `CCCCOc1ccc(CNC(=O)C2CCN(C(=O)c3cc4ccsc4[nH]3)CC2)cc1`, the RP-LC retention time turned out to be 937 s.

`Cn1nc(-c2nc(-c3ccc(F)cc3)no2)c2c1CCN(C(=O)C1CCCO1)C2` (centres undefined) registered an RP-LC retention time of 789 s.

The compound `O=C(NCc1ccccc1Cl)C(=O)NCC(c1ccc2c(c1)OCO2)N1CCOCC1` (centres undefined) showed an RP-LC retention time of 678 s.

`O=C(NC1CCN(c2cc(-c3ccc(F)cc3)[nH]n2)C1)c1ccc(F)cc1Cl` (centres undefined) gave an RP-LC retention time of 740 s.

`COc1ccc(-c2nc(-c3ccc4c(c3)oc(=O)n4C(C)C)no2)c(OC)c1` registered an RP-LC retention time of 1080 s.

Take `O=C(Cn1c(=O)c2cccn2c2ccc(F)cc21)Nc1ccccc1F`: the RP-LC retention time turned out to be 858 s.

Compound `CCCN1C(=O)COc2ccc(-c3noc(-c4cccc(OC)c4)n3)cc21` came in with an RP-LC retention time of 1190 s.

Regarding `COCCN1C(=O)[C@H]2CN(Cc3cc(Br)ccc3OC)C[C@H]2C1=O`, the RP-LC retention time stood at 633 s.

In the case of `O=C(NCCN1CCOCC1)c1ccc(-c2ccc(N3CCSCC3)nc2)cc1`, the RP-LC retention time was 568 s.

Turning to `O=C(c1cccs1)N1CCc2ccc(NS(=O)(=O)C3CCCCC3)cc21`, the RP-LC retention time turned out to be 892 s.

Take `Cc1ccc(Cn2c(N3CCCC(C(=O)Nc4cc(C)cc(C)c4)C3)nc3ccsc3c2=O)cc1` (centres undefined): the RP-LC retention time stood at 1160 s.

With `COC(=O)c1ccc(NC(=O)C2CCCN(S(=O)(=O)c3ccc(OC)c(C)c3)C2)cc1` (centres undefined), the RP-LC retention time turned out to be 1000 s.

For the compound `CCc1nccn1Cc1nc(-c2ccc(F)c(Cl)c2)no1`, the RP-LC retention time was 669 s.

`CSc1ccc(Cl)c(C(=O)NCCc2cn(C)c3ncccc23)c1` returned an RP-LC retention time of 724 s.

Compound `CSc1sc(C)cc1-c1nsc(=O)o1` showed an RP-LC retention time of 1110 s.

`O=C(NCCN1CCCCC1)C1CCN(c2nc3cccnc3s2)CC1`: the RP-LC retention time is 581 s.

The compound `Cc1nnc2ccc(-c3noc(-c4ccccc4)n3)cn12` showed an RP-LC retention time of 867 s.

In turn, `Cc1ccc(NC(=O)N2CCC(c3nc(C(=O)N4CCOCC4)c(C)o3)CC2)c(C)c1` displayed an RP-LC retention time of 709 s.

`COc1ccc(NS(=O)(=O)c2c(C)sc(C)c2-c2cc(C(F)(F)F)on2)cc1`: the RP-LC retention time turned out to be 1110 s.

In turn, `CC(=O)N1c2ccc(S(=O)(=O)N3CCCC3C(=O)Nc3nc4ccc(C)cc4s3)cc2CC1C` (centres undefined) showed an RP-LC retention time of 935 s.

Consider `Cc1cccc(CNC(=O)c2cc3n(n2)CC(C)(C(=O)NCc2ccccc2)N(C)C3=O)c1` (centres undefined), for which the RP-LC retention time amounted to 732 s.

In turn, `O=C(Nc1ccc2c(c1)CCN(Cc1ncn[nH]1)C2)c1ccccc1-c1ccc(C(F)(F)F)cc1` showed an RP-LC retention time of 755 s.

As to `Cc1noc([C@@H]2CC(F)(F)CN2S(=O)(=O)c2ccc(F)cc2)n1`, the RP-LC retention time came to 884 s.

In turn, `O=C(NCc1ccc(F)cc1)C1CCCN(S(=O)(=O)c2c[nH]c(C(=O)N3CCCC3)c2)C1` (centres undefined) showed an RP-LC retention time of 747 s.

`Cc1oc(C2CCN(C(=O)c3ccc(F)c(Cl)c3)CC2)nc1C(=O)N1CCCCC1` had an RP-LC retention time of 868 s.

Regarding `CC(=O)c1ccc(Oc2ccc(/C(C)=N\N=C(N)N)cc2)cc1`, the RP-LC retention time was found to be 674 s.

In the case of `COc1ccc(Cn2nc3c(S(=O)(=O)N4CCN(c5ccc(F)cc5)CC4)cccn3c2=O)cc1`, the RP-LC retention time stood at 905 s.

The compound `CC(C)c1nnc(-c2coc(S(=O)(=O)N3CCN(c4ccccn4)CC3)c2)o1` gave an RP-LC retention time of 657 s.

As to `O=S(=O)(c1ccccc1)N1CCc2nc(-c3ccc(Cl)cc3)ncc2C1`, the RP-LC retention time was 1170 s.

Regarding `COC(=O)c1sc2ccc(NC(=O)C3CCN(S(=O)(=O)c4cccs4)CC3)cc2c1OC`, the RP-LC retention time was determined as 988 s.

`O=C(C1CCCN(c2ncnc3c2nc2n3CCCCC2)C1)N1CCOCC1` (centres undefined) showed an RP-LC retention time of 1270 s.

Take `Cc1oc(-c2[nH]ncc2C(=O)N(C)C)cc1S(=O)(=O)Nc1ccc(C(C)C)cc1`: the RP-LC retention time is 770 s.

For `CC(C)Cn1cc(S(=O)(=O)Nc2ccccc2F)c2cccnc21`, the RP-LC retention time is 926 s.

Take `COc1ccccc1-c1nnc(C2CCN(S(C)(=O)=O)CC2)s1`: the RP-LC retention time was determined as 734 s.

Turning to `COC(=O)c1cccc(N2C=C(C#N)S(=O)(=O)c3ccc(C)cc32)c1`, the RP-LC retention time was found to be 881 s.

Turning to `C=CCN1CCN(c2nc3cc(C(=O)OC)ccc3c(=O)n2-c2cccc(Cl)c2)CC1`, the RP-LC retention time worked out at 681 s.

`COc1ccc(CNC(=O)C2(C)Cc3ccccc3C(=O)N2Cc2ccco2)cc1` (centres undefined) showed an RP-LC retention time of 860 s.

For the compound `CCc1noc(-c2cc(=O)n(CC(=O)NCc3ccccc3F)c3ccccc23)n1`, the RP-LC retention time was 890 s.

For `OC[C@H]1O[C@@H](c2ccc(Cl)c(Cc3ccc(O[C@H]4CCOC4)cc3)c2)[C@H](O)[C@@H](O)[C@@H]1O`, the RP-LC retention time worked out at 736 s.

In the case of `N#Cc1cccc(C(=O)N2CCc3cc(-c4ccno4)ccc32)c1`, the RP-LC retention time amounted to 724 s.

`Cc1cnc(C2CC2)n1CCNS(=O)(=O)c1cc(F)cc(F)c1`: the RP-LC retention time turned out to be 615 s.

The compound `CN(CC1CCOC1)C(=O)NCc1cccc(F)c1` (centres undefined) yielded an RP-LC retention time of 675 s.

Compound `CCCCSc1ncnc2[nH]ncc12` yielded an RP-LC retention time of 919 s.

Turning to `Cc1cc(NC(=O)C2CCN(c3cc(N4CCCC4)ncn3)CC2)ccc1F`, the RP-LC retention time came out at 693 s.

For the compound `COCC(=O)Nc1ccccc1NC(=O)c1ccsc1`, the RP-LC retention time was determined as 648 s.

The compound `CCCCN(Cc1ccco1)C(=O)Cn1nc(Cc2ccncc2)c2ccccc2c1=O` displayed an RP-LC retention time of 679 s.
